In article PMC5908784, “Extracellular loops 2 and 3 of the calcitonin receptor selectively modify agonist binding and efficacy” (Biochemical Pharmacology, 2018):
Numbering of substitutions follows the chain as printed. Where a SMILES comes first, the peptide text is derived from it. Bridges are numbered along the chain shown (N, C = ends).

Tests used:
Experiment in all cases: Heterologous whole cell competition binding
Settings in all cases: heterologous competition of 125I-sCT(8-32), whole cells, mean ± S.E.M., SEM
[1] = molecular target: T1, hCTR Y372A (Homo sapiens, UniProt P30988, Y372A)
T1 construct: c-Myc (N); expressed in transfected cells
T1 sequence (P30988 25-474 Y372A): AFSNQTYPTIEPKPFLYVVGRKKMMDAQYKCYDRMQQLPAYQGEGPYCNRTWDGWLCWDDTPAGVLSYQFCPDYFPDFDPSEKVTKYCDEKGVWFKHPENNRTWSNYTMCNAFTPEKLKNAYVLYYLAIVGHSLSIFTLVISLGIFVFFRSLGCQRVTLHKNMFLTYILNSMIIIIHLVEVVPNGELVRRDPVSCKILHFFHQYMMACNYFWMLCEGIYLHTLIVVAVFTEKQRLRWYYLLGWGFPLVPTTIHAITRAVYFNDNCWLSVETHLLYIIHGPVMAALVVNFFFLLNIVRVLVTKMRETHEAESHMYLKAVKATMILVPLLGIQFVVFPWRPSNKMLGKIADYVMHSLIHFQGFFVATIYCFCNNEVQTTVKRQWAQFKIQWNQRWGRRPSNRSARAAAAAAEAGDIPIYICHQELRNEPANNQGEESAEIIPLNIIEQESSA
Outline: (§1)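 Reported pKi values come from whole-cell displacement of a radiolabelled tracer, incubated overnight and quantified by gamma counting after washing out free ligand, with correction for tracer occupancy (Cheng-Prusoff).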

[2] = molecular target: T2, hCTR V358A (Homo sapiens, UniProt P30988, V358A)
T2 construct: c-Myc (N); expressed in transfected cells
T2 sequence (P30988 25-474 V358A): T1 sequence (P30988 25-474 Y372A) with V334A, A348Y
Outline: as §1

[3] = molecular target: T3, hCTR I279A (Homo sapiens, UniProt P30988, I279A)
T3 construct: expressed in transfected cells
T3 sequence (P30988 25-474 I279A): T1 sequence (P30988 25-474 Y372A) with I255A, A348Y
Outline: as §1

[4] = molecular target: T4, hCTR V293A (Homo sapiens, UniProt P30988, V293A)
T4 construct: c-Myc (N); expressed in transfected cells
T4 sequence (P30988 25-474 V293A): T1 sequence (P30988 25-474 Y372A) with V269A, A348Y
Outline: as §1

[5] = molecular target: T5, hCTR E294A (Homo sapiens, UniProt P30988, E294A)
T5 construct: c-Myc (N); expressed in transfected cells
T5 sequence (P30988 25-474 E294A): T1 sequence (P30988 25-474 Y372A) with E270A, A348Y
Outline: as §1

CSCC[C@H](NC(=O)CNC(=O)[C@H](CO)NC(=O)[C@H](Cc1ccccc1)NC(=O)[C@H](CCCNC(=N)N)NC(=O)[C@H](Cc1c[nH]cn1)NC(=O)[C@H](Cc1ccccc1)NC(=O)[C@H](CC(N)=O)NC(=O)[C@H](CC(N)=O)NC(=O)[C@H](CC(C)C)NC(=O)[C@H](CC(N)=O)NC(=O)[C@H](CCCNC(=N)N)NC(=O)[C@H](Cc1c[nH]c2ccccc12)NC(=O)[C@H](Cc1ccc(O)cc1)NC(=O)[C@H](C)NC(=O)[C@H](CO)NC(=O)[C@H](CC(C)C)NC(=O)[C@@H](NC(=O)[C@@H]1CSSC[C@H](N)C(=O)N[C@@H](CO)C(=O)N[C@@H](CC(N)=O)C(=O)N[C@@H](CC(C)C)C(=O)N[C@@H](CO)C(=O)N[C@@H]([C@@H](C)O)C(=O)N1)C(C)C)C(=O)NCC(=O)N[C@@H](Cc1ccccc1)C(=O)NCC(=O)N1CCC[C@H]1C(=O)N[C@@H](CCC(=O)O)C(=O)N[C@H](C(=O)N1CCC[C@H]1C(N)=O)[C@@H](C)O [pCT] (H-CSNLSTCVLSAYWRNLNNFHRFSGMGFGPETP-NH2; disulfide 1-7)
Ki [1]: 28.2 nM | Ki [2]: 14.5 nM | Ki [3]: 14.8 nM | Ki [4]: 14.1 nM | Ki [5]: 11.7 nM
